In US20160238590A1, “COMPOSITIONS AND METHODS RELATED TO OAT SENSITIVITY” (IMMUSANT, INC., priority 2013, published 2016):
Where no end group is shown, it is not given here. [ ]: non-standard residue; d: D form. pGlu = O=C1CC[C@@H](C(=O)O)N1

Columns and labels:
Assay in all cases: IFN-γ ELISpot with T cell clone
Type in all cases: cell-based, human
Patient 2 TCC-01 = system: Patient 2 TCC-01
Procedure: (§1) Peripheral blood mononuclear cells (PBMC) were isolated from heparinized whole blood using Ficoll-Paque™ Plus density-gradient centrifugation (GE Healthcare). IFN-γ ELISpot (Mabtech) was set up as previously described^8.
(§2) Isolation of TCC from CD patients was carried out as previously described^8. Briefly, CFSE-labeled PBMC were incubated with antigen for 7 days in IMDM supplemented with 5% heat-inactivated pooled human serum (PHS), 2 mM GlutaMAX™, 100 μM MEM non-essential amino acids (both from Gibco, Invitrogen), and 50 μM 2-mercaptoethanol (Sigma). Proliferated cells were single-cell sorted into 96-well plates containing IL-2, IL-4, anti-CD3 mAb, irradiated feeder cells (allogeneic PBMC and JY-EBV). TCC were expanded and maintained in IL-2 and IL-4 and tested for specificity by ELISpot with irradiated HLA-matched PBMC as antigen-presenting cells. Expanded clones were tested for HLA-DQ restriction, TCR Vbeta usage, and with lysine scans to work out minimal epitopes. See Table 1 below for TCC and epitope information.

Patient 14 TCC-01 = conditions: TCC Patient 14 TCC-01, peptide 50 μg/mL
Procedure: as §1, §2

Patient 10 TCC-01 = conditions: TCC Patient 10 TCC-01, peptide 50 μg/mL
Procedure: as §1, §2

Patient 9 TCC-02 = conditions: TCC Patient 9 TCC-02, peptide 50 μg/mL
Procedure: as §1, §2

Patient 9 TCC-01 = conditions: TCC Patient 9 TCC-01, peptide 50 μg/mL
Procedure: as §1, §2

Patient 6 TCC-01 = system: Patient 6 TCC-01
Procedure: as §1, §2

Patient 8 TCC-01 = conditions: TCC Patient 8 TCC-01, peptide 25 μg/mL
Procedure: as §1, §2

Patient 2 TCC-03 = conditions: TCC Patient 2 TCC-03, peptide 25 μg/mL
Procedure: as §1, §2

Patient 2 TCC-02 = conditions: TCC Patient 2 TCC-02, peptide 25 μg/mL
Procedure: as §1, §2

[1] = TCC Patient 2 TCC-01, peptide 50 μg/mL
[2] = TCC Patient 6 TCC-01, peptide 50 μg/mL
[3] = TCC Patient 2 TCC-01, peptide 25 μg/mL
[4] = TCC Patient 6 TCC-01, peptide 25 μg/mL

With LQPFPQPELPYPQPQ [reference compound] the “IFN-γ ELISpot response (raw SFU)” value (Patient 2 TCC-01; [1]) was 0 SFU, the “IFN-γ ELISpot response (raw SFU)” value (Patient 14 TCC-01) was 22 SFU and the “IFN-γ ELISpot response (raw SFU)” value (Patient 10 TCC-01) was 39 SFU. For the same sequence, the “IFN-γ ELISpot response (raw SFU)” value (Patient 9 TCC-02) was 240 SFU, the “significant SFU as a percentage of maximal peptide SFU” value (“significant SFU as a percentage” for short) (Patient 9 TCC-02) was “*** (***: >70%)” and the “IFN-γ ELISpot response (raw SFU)” value (Patient 9 TCC-01) was 287 SFU. For the same sequence, the “significant SFU as a percentage” value (Patient 9 TCC-01) was “*** (***: >70%)” and the “IFN-γ ELISpot response (raw SFU)” value (Patient 6 TCC-01; [2]) was 2 SFU.
With “PEQPFPEQPQPYPQQP (not fully specified (C-terminus))” the “IFN-γ ELISpot response (SFU)” value (Patient 2 TCC-01; [3]) was 151 SFU, the “significant SFU as a percentage” value (Patient 2 TCC-01; [3]) was “** (**: 40-70%)” and the “IFN-γ ELISpot response (raw SFU)” value (Patient 2 TCC-01; [1]) was 202 SFU. For the same sequence, the “significant SFU as a percentage” value (Patient 2 TCC-01; [1]) was “** (**: 40-70%)”, the “IFN-γ ELISpot response (raw SFU)” value (Patient 14 TCC-01) was 66 SFU and the “significant SFU as a percentage” value (Patient 14 TCC-01) was “*** (***: >70%)”. The “IFN-γ ELISpot response (raw SFU)” value (Patient 10 TCC-01) was 3 SFU, the “IFN-γ ELISpot response (SFU)” value (Patient 8 TCC-01) was 145 SFU and the “significant SFU as a percentage” value (Patient 8 TCC-01) was “*** (***: >70%)”. For the same sequence, the “IFN-γ ELISpot response (SFU)” value (Patient 2 TCC-03) was 159 SFU, the “significant SFU as a percentage” value (Patient 2 TCC-03) was “*** (***: >70%)” and the “IFN-γ ELISpot response (raw SFU)” value (Patient 9 TCC-02) was 0 SFU. For the same sequence, the “IFN-γ ELISpot response (raw SFU)” value (Patient 9 TCC-01) was 0 SFU, the “IFN-γ ELISpot response (SFU)” value (Patient 6 TCC-01; [4]) was 59 SFU and the “significant SFU as a percentage” value (Patient 6 TCC-01; [4]) was “** (**: 40-70%)”. For the same sequence, the “IFN-γ ELISpot response (raw SFU)” value (Patient 6 TCC-01; [2]) was 73 SFU, the “significant SFU as a percentage” value (Patient 6 TCC-01; [2]) was “*** (***: >70%)” and the “IFN-γ ELISpot response (SFU)” value (Patient 2 TCC-02) was 5 SFU.
In the case of “QPFPQPEQPFPWQP ([pGlu]PFPQPEQPFPWQP-NH2; SMILES NC(=O)CC[C@H](NC(=O)[C@H](Cc1c[nH]c2ccccc12)NC(=O)[C@@H]1CCCN1C(=O)[C@H](Cc1ccccc1)NC(=O)[C@@H]1CCCN1C(=O)[C@H](CCC(N)=O)NC(=O)[C@H](CCC(=O)O)NC(=O)[C@@H]1CCCN1C(=O)[C@H](CCC(N)=O)NC(=O)[C@@H]1CCCN1C(=O)[C@H](Cc1ccccc1)NC(=O)[C@@H]1CCCN1C(=O)[C@@H]1CCC(=O)N1)C(=O)N1CCC[C@H]1C(N)=O) [wheat gliadin peptide containing DQ2.5-glia-ω1 and DQ2.5-glia-ω2, reference compound]”, the “IFN-γ ELISpot response (raw SFU)” value (Patient 2 TCC-01; [1]) is reported as 2 SFU, the “IFN-γ ELISpot response (raw SFU)” value (Patient 14 TCC-01) is reported as 20 SFU and the “IFN-γ ELISpot response (raw SFU)” value (Patient 10 TCC-01) is reported as 205 SFU. For the same sequence, the “significant SFU as a percentage” value (Patient 10 TCC-01) was “*** (***: >70%)”, the “IFN-γ ELISpot response (raw SFU)” value (Patient 9 TCC-02) was 0 SFU and the “IFN-γ ELISpot response (raw SFU)” value (Patient 9 TCC-01) was 1 SFU. The “IFN-γ ELISpot response (raw SFU)” value (Patient 6 TCC-01; [2]) was 1 SFU.
